Biological target: T1, mouse SGLT5 (Mus musculus, UniProt Q5SWY8)
T1 construct: expressed in transfected cells; host or cells: HEK293T
T1 sequence (Q5SWY8 1-596): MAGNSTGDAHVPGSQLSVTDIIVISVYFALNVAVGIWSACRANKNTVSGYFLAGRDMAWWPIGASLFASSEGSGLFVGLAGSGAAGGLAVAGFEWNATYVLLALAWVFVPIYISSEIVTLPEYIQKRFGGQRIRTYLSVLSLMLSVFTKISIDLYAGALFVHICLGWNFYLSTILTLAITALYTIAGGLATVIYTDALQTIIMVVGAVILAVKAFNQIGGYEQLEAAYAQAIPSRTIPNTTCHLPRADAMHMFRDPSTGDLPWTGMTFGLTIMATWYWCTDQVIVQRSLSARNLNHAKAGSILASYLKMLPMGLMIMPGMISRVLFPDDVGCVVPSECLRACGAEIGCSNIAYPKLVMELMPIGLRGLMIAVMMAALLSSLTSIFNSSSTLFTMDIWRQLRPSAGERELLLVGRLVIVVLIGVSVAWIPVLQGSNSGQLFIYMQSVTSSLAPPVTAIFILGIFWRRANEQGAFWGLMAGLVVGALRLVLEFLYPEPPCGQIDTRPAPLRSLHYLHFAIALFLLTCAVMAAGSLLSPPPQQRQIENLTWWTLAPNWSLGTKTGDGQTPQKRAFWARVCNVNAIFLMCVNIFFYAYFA
Test: Radioactive uptake assay (saturation kinetics) in HEK293T cells expressing mouse SGLT5
Format: cell-based
Description: For a typical transporter experiment we proceeded as follows. […] To minimize cell loss during the various washing steps in the radioactive uptake experiments, the wells where the cells were seeded were previously coated with poly- D-lysine, which improved their adhesion to the plastic surface of the wells. For this, each well of the 24-well plates was treated with 200 µl of a 0.01% poly-L-lysine solution for 10 min, washed 3 times with 1 ml of sterilized water and left to dry for 2 h. Only then could the 24-well plates be seeded with the appropriate cell lines and cultured overnight at 37 °C in 5% CO2.
On day two, the radioactive uptake assay could be performed. […]
Once the uptake medium was added to the cells, the plates were incubated at 37 °C in 5% CO2 during the required time. […] In each experiment, the transport activities were calculated after subtracting a “blank” value, corresponding to the radioactivity in the appropriate control cells (HEK293T cells that were stably or transiently transfected with one of the parent plasmids pEF6/MycHisA, pEF6HisB, pUB82 or pUB83 with no inserted cDNA) that were analyzed in parallel. […]
Supplementary Fig. 4: Transport activities for 1,5-anhydroglucitol and mannose of recombinant mouse SGLT4 and SGLT5 isoforms measured in HEK293T cells. […]

OC[C@H]1OC[C@H](O)[C@@H](O)[C@@H]1O [1,5-AG, 1,5-anhydroglucitol]
mSGLT5 Vmax (30 min, Supplementary Fig. 4): 16 pmol/min/100 000 cells | higher affinity of mouse SGLT5 than mouse SGLT4 for 1,5-AG (mouse SGLT5 versus mouse SGLT4): over tenfold
